Test results reported in PubChem BioAssay AID256 (DTP/NCI, 2004).
“And” between values parts separate entries of the source, which are not always exact repeats. Equal entries are not always repeated. Toxic doses and inconclusive results are not listed.

Tested on: CD2F1 mice, L1210 leukemia ip, survival T/C
Test: NCI In Vivo Anticancer Drug Screen. Data for tumor model L1210 Leukemia (intraperitoneal) in CD2F1 (CDF1) mice
Settings: higher = longer survival
In short: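 Mice carrying a transplanted tumor received test compound or vehicle alone. The value is the measurement in the treated group divided by that in the vehicle-treated control group.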

[1] = endpoint: mean survival time, dose: 100.0 mg/kg/injection, schedule: Q04DX003 (ip), vehicle: saline with Tween-80
[2] = endpoint: mean survival time, dose: 200.0 mg/kg/injection, schedule: Q04DX003 (ip), vehicle: saline with Tween-80
[3] = endpoint: mean survival time, dose: 400.0 mg/kg/injection, schedule: Q04DX003 (ip), vehicle: saline with Tween-80
[4] = endpoint: mean survival time, dose: 66.0 mg/kg/injection, schedule: Q04DX003 (ip), vehicle: saline with Tween-80
[5] = endpoint: mean survival time, dose: 150.0 mg/kg/injection, schedule: Q04DX003 (ip), vehicle: saline with Tween-80

`CN(Cc1ccccc1)C(c1ccccc1)C(O)C(O)(c1ccccc1)c1ccccc1` (stereo not drawn) was tested, and the T/C (endpoint: mean survival time, dose: 100.0 mg/kg/injection, schedule: Q04DX003 (ip), vehicle: acetone) was 97 % of control, the T/C (endpoint: mean survival time, dose: 200.0 mg/kg/injection, schedule: Q04DX003 (ip), vehicle: acetone) was 97 % of control and the T/C (endpoint: mean survival time, dose: 400.0 mg/kg/injection, schedule: Q04DX003 (ip), vehicle: acetone) was 90 % of control.
With `CC(C)CCOC(=O)Nc1cccc(O)c1` the T/C [1] was 98 % of control, the T/C [2] was 100 % of control and the T/C [3] was 101 % of control.
In the case of `CC(C)CC(NC(=O)CF)C(=O)O` (stereo not drawn), the T/C (endpoint: mean survival time, dose: 0.31 mg/kg/injection, schedule: Q01DX009 (ip), vehicle: saline) is reported as 98 % of control and 108 % of control, the T/C (endpoint: mean survival time, dose: 0.62 mg/kg/injection, schedule: Q01DX009 (ip), vehicle: saline) is reported as 98 % of control and the T/C (endpoint: mean survival time, dose: 0.63 mg/kg/injection, schedule: Q01DX009 (ip), vehicle: saline) is reported as 111 % of control. For the same compound, the T/C (endpoint: mean survival time, dose: 1.25 mg/kg/injection, schedule: Q01DX009 (ip), vehicle: saline) was 98 % of control and 106 % of control, the T/C (endpoint: mean survival time, dose: 2.5 mg/kg/injection, schedule: Q01DX009 (ip), vehicle: saline) was 98 % of control and 100 % of control and the T/C (endpoint: mean survival time, dose: 5.0 mg/kg/injection, schedule: Q01DX009 (ip), vehicle: saline) was 98 % of control and 110 % of control.
`O=C([O-])CC(=O)[O-].[NH-][C@@H]1CCCC[C@H]1[NH-].[Pt+4]` was tested, and the T/C (endpoint: mean survival time, dose: 6.25 mg/kg/injection, schedule: Q04DX003 (ip), vehicle: saline with Tween-80) was 113 % of control.
In the case of `O=C(NC(COCc1ccccc1)C(=O)O)OCc1ccccc1` (stereo not drawn), the T/C [1] is reported as 88 % of control, the T/C [2] is reported as 92 % of control and the T/C [3] is reported as 100 % of control.
`CC(C)(C)C(O)CC(O)(C(F)(F)Cl)C(F)(F)Cl` (stereo not drawn) was tested, and the T/C (endpoint: mean survival time, dose: 100.0 mg/kg/injection, schedule: Q01DX009 (ip), vehicle: saline with Tween-80) was 101 % of control, the T/C (endpoint: mean survival time, dose: 200.0 mg/kg/injection, schedule: Q01DX009 (ip), vehicle: saline with Tween-80) was 109 % of control and the T/C (endpoint: mean survival time, dose: 400.0 mg/kg/injection, schedule: Q01DX009 (ip), vehicle: saline with Tween-80) was 105 % of control.
With `CCCCCCCCCC1=NC(C)(C)CN1c1ccccc1` the T/C (endpoint: mean survival time, dose: 5.0 mg/kg/injection, schedule: Q01DX009 (ip), vehicle: saline with Tween-80) was 98 % of control, the T/C (endpoint: mean survival time, dose: 10.0 mg/kg/injection, schedule: Q01DX009 (ip), vehicle: saline with Tween-80) was 102 % of control and the T/C (endpoint: mean survival time, dose: 20.0 mg/kg/injection, schedule: Q01DX009 (ip), vehicle: saline with Tween-80) was 106 % of control.
In the case of `CNNC(=O)OC`, the T/C (endpoint: mean survival time, dose: 25.0 mg/kg/injection, schedule: Q04DX002 (ip), vehicle: saline) is reported as 95 % of control, the T/C (endpoint: mean survival time, dose: 50.0 mg/kg/injection, schedule: Q04DX002 (ip), vehicle: saline) is reported as 98 % of control and the T/C (endpoint: mean survival time, dose: 100.0 mg/kg/injection, schedule: Q04DX002 (ip), vehicle: saline) is reported as 121 % of control and 109 % of control.
For `CCOC(=O)c1oc(C)nc1C`, the T/C (endpoint: mean survival time, dose: 12.5 mg/kg/injection, schedule: Q01DX001 (ip), vehicle: Klucel (hydroxypropylcellulose) (HPC)) was 90 % of control, the T/C (endpoint: mean survival time, dose: 25.0 mg/kg/injection, schedule: Q01DX001 (ip), vehicle: Klucel (hydroxypropylcellulose) (HPC)) was 104 % of control and the T/C (endpoint: mean survival time, dose: 50.0 mg/kg/injection, schedule: Q01DX001 (ip), vehicle: Klucel (hydroxypropylcellulose) (HPC)) was 98 % of control. For the same compound, the T/C (endpoint: mean survival time, dose: 100.0 mg/kg/injection, schedule: Q01DX001 (ip), vehicle: Klucel (hydroxypropylcellulose) (HPC)) was 101 % of control and the T/C (endpoint: mean survival time, dose: 200.0 mg/kg/injection, schedule: Q01DX001 (ip), vehicle: Klucel (hydroxypropylcellulose) (HPC)) was 98 % of control.
In the case of `Cc1cc([N+](=O)[O-])cc(Br)c1N`, the T/C (endpoint: mean survival time, dose: 44.0 mg/kg/injection, schedule: Q04DX003 (ip), vehicle: saline with Tween-80) is reported as 93 % of control, the T/C [4] is reported as 95 % of control and the T/C [1] is reported as 93 % of control. For the same compound, the T/C [5] was 95 % of control.
In the case of `COc1cc(NS(C)(=O)=O)ccc1Nc1c2ccc(Cl)cc2nc2c(OC)cccc12`, the T/C (endpoint: mean survival time, dose: 12.5 mg/kg/injection, schedule: Q01DX009 (ip), vehicle: saline with Tween-80) is reported as 106 % of control, the T/C [4] is reported as 238 % of control and the T/C (endpoint: mean survival time, dose: 100.0 mg/kg/injection, schedule: Q04DX003 (ip), vehicle: saline sonified) is reported as 168 % of control. For the same compound, the T/C [1] was 273 % of control, the T/C [5] was 88 % of control and the T/C (endpoint: mean survival time, dose: 200.0 mg/kg/injection, schedule: Q04DX003 (ip), vehicle: saline sonified) was 154 % of control.
With `CC[C@@]1(O)C(=O)OCc2c1cc1n(c2=O)Cc2cc3c(N)cccc3nc2-1` the T/C (endpoint: median survival time, dose: 0.25 mg/kg/injection, schedule: Q01DX005 (ip), vehicle: saline with Tween-80) was 168 % of control, the T/C (endpoint: median survival time, dose: 0.3 mg/kg/injection, schedule: Q01DX005 (ip), vehicle: saline with Tween-80) was 150 % of control and the T/C (endpoint: median survival time, dose: 0.5 mg/kg/injection, schedule: Q01DX005 (ip), vehicle: saline with Tween-80) was 182 % of control and 223 % of control. The T/C (endpoint: median survival time, dose: 0.63 mg/kg/injection, schedule: Q04DX002 (ip), vehicle: saline with Tween-80) was 202 % of control, the T/C (endpoint: median survival time, dose: 0.84 mg/kg/injection, schedule: Q01DX005 (ip), vehicle: saline with Tween-80) was 182 % of control and the T/C (endpoint: median survival time, dose: 1.0 mg/kg/injection, schedule: Q01DX005 (ip), vehicle: saline with Tween-80) was 108 % of control. The T/C (endpoint: median survival time, dose: 1.25 mg/kg/injection, schedule: Q04DX002 (ip), vehicle: saline with Tween-80) was 228 % of control, the T/C (endpoint: median survival time, dose: 1.39 mg/kg/injection, schedule: Q01DX005 (ip), vehicle: saline with Tween-80) was 365 % of control and the T/C (endpoint: median survival time, dose: 2.0 mg/kg/injection, schedule: Q01DX005 (ip), vehicle: saline with Tween-80) was 87 % of control. The T/C (endpoint: median survival time, dose: 2.32 mg/kg/injection, schedule: Q01DX005 (ip), vehicle: saline with Tween-80) was 121 % of control, the T/C (endpoint: median survival time, dose: 2.5 mg/kg/injection, schedule: Q04DX002 (ip), vehicle: saline with Tween-80) was 348 % of control and 361 % of control and the T/C (endpoint: median survival time, dose: 5.0 mg/kg/injection, schedule: Q04DX002 (ip), vehicle: saline with Tween-80) was 220 % of control and 361 % of control. For the same compound, the T/C (endpoint: median survival time, dose: 10.0 mg/kg/injection, schedule: Q04DX002 (ip), vehicle: saline with Tween-80) was 93 % of control.
